Results reported in US8063021B2, “Ketolide anti-infective compounds” (Kosan Biosciences Incorporated, priority 2003, dated 2011).
Like-named read-outs stand apart in the source and are kept apart here.

Legend:
[1] = system: S. pneumoniae ATCC 700906; assay: microdilution assay MIC, S. pneumoniae ATCC 700906; format: cell-based, Streptococcus pneumoniae
Method: (§1) In Table B, in some instances multiple assays were performed for a compound/strain combination, in which case the reported MIC is the average.

E. faecalis ATCC 51575 = assay: microdilution assay MIC, E. faecalis ATCC 51575; format: cell-based, Enterococcus faecalis
Method: as §1

S. pneumoniae ATCC 49619 = assay: microdilution assay MIC, S. pneumoniae ATCC 49619; format: cell-based, Streptococcus pneumoniae; details: S. pneumoniae ATCC 49619, erythromycin sensitive strain, average where multiple assays
Method: (§2) In Table B, in some instances multiple assays were performed for a compound/strain combination, in which case the reported MIC is the average. S. pneumoniae ATCC 6301, ATCC 700671, and ATCC 49619 and S. aureus ATCC 6538p and ATCC 29213 are erythromycin sensitive strains.

S. pneumoniae ATCC 6301 = assay: microdilution assay MIC, S. pneumoniae ATCC 6301; format: cell-based, Streptococcus pneumoniae; details: S. pneumoniae ATCC 6301, erythromycin sensitive strain, average where multiple assays
Method: as §2

S. aureus ATCC 14154 = assay: microdilution assay MIC, S. aureus ATCC 14154; format: cell-based, Staphylococcus aureus
Method: as §1

S. aureus ATCC 29213 = assay: microdilution assay MIC, S. aureus ATCC 29213; format: cell-based, Staphylococcus aureus; details: S. aureus ATCC 29213, erythromycin sensitive strain, average where multiple assays
Method: as §2

[2] = system: S. epidermidis ATCC 12228; assay: microdilution assay MIC, S. epidermidis ATCC 12228; format: cell-based, Staphylococcus epidermidis
Method: as §2

H. influenzae ATCC 49766 = assay: microdilution assay MIC, H. influenzae ATCC 49766; format: cell-based, Haemophilus influenzae
Method: as §2

[3] = system: S. pneumoniae ATCC 700676; assay: microdilution assay MIC, S. pneumoniae ATCC 700676; format: cell-based, Streptococcus pneumoniae
Method: as §2

[4] = system: S. pneumoniae ATCC 700677; assay: microdilution assay MIC, S. pneumoniae ATCC 700677; format: cell-based, Streptococcus pneumoniae
Method: as §2

[5] = system: S. pneumoniae ATCC 700905; assay: microdilution assay MIC, S. pneumoniae ATCC 700905; format: cell-based, Streptococcus pneumoniae
Method: as §2

S. aureus ATCC 6538p = assay: microdilution assay MIC, S. aureus ATCC 6538p; format: cell-based, Staphylococcus aureus; details: erythromycin sensitive strain, average where multiple assays
Method: as §2

H. influenzae ATCC 9006 = assay: microdilution assay MIC, H. influenzae ATCC 9006; format: cell-based, Haemophilus influenzae
Method: as §2

[6] = system: S. pneumoniae ATCC 700671; assay: microdilution assay MIC, S. pneumoniae ATCC 700671; format: cell-based, Streptococcus pneumoniae; details: S. pneumoniae ATCC 700671, erythromycin sensitive strain, average where multiple assays
Method: as §2

[7] = S. pneumoniae ATCC 700906, erythromycin A resistant strain, average where multiple assays
[8] = S. aureus ATCC 14154, erythromycin A resistant strain, average where multiple assays
[9] = S. pneumoniae ATCC 700676, erythromycin A resistant strain, average where multiple assays
[10] = S. pneumoniae ATCC 700677, erythromycin A resistant strain, average where multiple assays
[11] = S. pneumoniae ATCC 700905, erythromycin A resistant strain, average where multiple assays

Row | SMILES | MIC [1, 7] [µg/mL] | MIC (E. faecalis ATCC 51575; average where multiple assays) [µg/mL] | MIC (S. pneumoniae ATCC 49619) [µg/mL] | MIC (S. pneumoniae ATCC 6301) [µg/mL] | MIC (S. aureus ATCC 14154; [8]) [µg/mL] | MIC (S. aureus ATCC 29213) [µg/mL] | MIC ([2]; average where multiple assays) [µg/mL] | MIC (H. influenzae ATCC 49766; average where multiple assays) [µg/mL] | MIC [3, 9] [µg/mL] | MIC [4, 10] [µg/mL] | MIC [5, 11] [µg/mL] | MIC (S. aureus ATCC 6538p) [µg/mL] | MIC (H. influenzae ATCC 9006; average where multiple assays) [µg/mL] | MIC [6] [µg/mL] | other results
1 | CC[C@H]1OC(=O)[C@H](C)C(=O)[C@H](C)[C@@H](O[C@@H]2O[C@H](C)C[C@H](N(C)C)[C@H]2O)[C@](C)(OC)C[C@@H](C)C(=O)[C@H](C)[C@H]2N(CCCCn3cnc(-c4cccnc4)c3)C(=O)O[C@]12C [Tel, telithromycin, reference compound] |  |  |  |  |  |  |  |  |  |  |  |  |  |  | MIC ([1]; Streptococcus pneumoniae, ATCC700906, read-out: MIC): 0.2 µg/mL; MIC (E. faecalis ATCC 51575; Enterococcus faecalis, ATCC51575, average where multiple assays, read-out: MIC): > 12.5 µg/mL; MIC (S. pneumoniae ATCC 49619; Streptococcus pneumoniae, ATCC49619, read-out: MIC): 0.049 µg/mL; MIC (S. pneumoniae ATCC 6301; Streptococcus pneumoniae, ATCC6301, read-out: MIC): 0.025 µg/mL; MIC (S. aureus ATCC 14154; Staphylococcus aureus, ATCC14154, read-out: MIC): > 12.5 µg/mL; MIC (S. aureus ATCC 29213; Staphylococcus aureus, ATCC29213, read-out: MIC): 0.025 µg/mL; MIC ([2]; Staphylococcus epidermidis, ATCC12228, average where multiple assays, read-out: MIC): 0.025 µg/mL; MIC (H. influenzae ATCC 49766; Haemophilus influenzae, ATCC49766, average where multiple assays, read-out: MIC): 3.12 µg/mL; MIC ([3]; Streptococcus pneumoniae, ATCC700676, read-out: MIC): 0.098 µg/mL; MIC ([4]; Streptococcus pneumoniae, ATCC700677, read-out: MIC): 0.025 µg/mL; MIC ([5]; Streptococcus pneumoniae, ATCC700905, read-out: MIC): 0.025 µg/mL; MIC (S. aureus ATCC 6538p; Staphylococcus aureus, ATCC6538P, read-out: MIC): 0.025 µg/mL; MIC (H. influenzae ATCC 9006; Haemophilus influenzae, ATCC9006, average where multiple assays, read-out: MIC): 1.56 µg/mL; MIC ([6]; Streptococcus pneumoniae, ATCC700671, read-out: MIC): 0.025 µg/mL
2 | COC1(C)CC(C)C(=O)C(C)C2NC(=O)OC2(C)C(CCN(Cc2cccc(-c3ccco3)c2)Cc2cccc(-c3ccco3)c2)OC(=O)C(C)C(=O)C(C)C1OC1OC(C)CC(N(C)C)C1O (centres unmarked) [Compound 104] | >12.5 | 12.5 | >12.5 | 3.12 | 6.25 | 6.25 | 6.25 | >12.5 | 6.25 | 6.25 | >12.5 | >12.5 | >12.5 | 3.12 | 
3 | COC1(C)CC(C)C(=O)C(C)C2NC(=O)OC2(C)C(CCN(C)CCc2cccc(-c3ccco3)c2)OC(=O)C(C)C(=O)C(C)C1OC1OC(C)CC(N(C)C)C1O (centres unmarked) [Compound 103] | >12.5 | 12.5 | 0.049 | 0.049 | 0.39 | 0.39 | 0.049 | >12.5 | 0.049 | 0.098 | 0.049 | 0.098 | >12.5 | 0.049 | 
4 | COC1(C)CC(C)C(=O)C(C)C2NC(=O)OC2(C)C(CCNS(=O)(=O)c2cccc3cccnc23)OC(=O)C(C)C(=O)C(C)C1OC1OC(C)CC(N(C)C)C1O (centres unmarked) [Compound 105] | 0.39 | 0.025 | 0.01 | 0.01 | 0.39 | 0.049 | 0.025 | 6.25 | 0.01 | 0.01 | 0.01 | 0.049 | 3.12 | 0.01 | 
5 | COC1(C)CC(C)C(=O)C(C)C2NC(=O)OC2(C)C(CCNS(=O)(=O)c2cccc(-c3ccco3)c2)OC(=O)C(C)C(=O)C(C)C1OC1OC(C)CC(N(C)C)C1O (centres unmarked) [Compound 108] | 0.049 | 0.025 | 0.025 | 0.025 | 0.049 | 0.025 | 0.025 | >12.5 | 0.025 | 0.025 | 0.025 | 0.025 | 12.5 | 0.025 | 
6 | CCN(C)CCC1OC(=O)C(C)C(=O)C(C)C(OC2OC(C)CC(N(C)C)C2O)C(C)(OC)CC(C)C(=O)C(C)C2NC(=O)OC12C (centres unmarked) [Compound 101] | >12.5 | 6.25 | 0.78 | 0.2 | 6.25 | 6.25 | 6.25 |  | 6.25 | >12.5 | 3.12 | 6.25 |  | 0.39 | 
7 | COC1(C)CC(C)C(=O)C(C)C2NC(=O)OC2(C)C(CCNS(=O)(=O)c2cccc3ccccc23)OC(=O)C(C)C(=O)C(C)C1OC1OC(C)CC(N(C)C)C1O (centres unmarked) [Compound 106] | 12.5 | 0.025 | 0.01 | 0.01 | 3.12 | 0.025 | 0.025 | 6.25 | 0.01 | 0.01 | 0.01 | 0.01 | 6.25 | 0.01 | 
8 | COC1(C)CC(C)C(=O)C(C)C2NC(=O)OC2(C)C(CCNS(=O)(=O)c2ccc3ccccc3c2)OC(=O)C(C)C(=O)C(C)C1OC1OC(C)CC(N(C)C)C1O (centres unmarked) [Compound 107] | 3.12 | 0.025 | 0.01 | 0.01 | 1.56 | 0.025 | 0.025 | 12.5 | 0.01 | 0.01 | 0.01 | 0.01 | 12.5 | 0.01 | 
